Results on 16 molecules are retold here after PubChem BioAssay (NCI).

“And” between values parts separate entries of the source, which are not always exact repeats. Equal entries are not always repeated.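 Exposure lasted 48 hours, with cells grown in 96-well plates and compounds tested at five concentrations. At the GI50, growth is halved. TGI: concentration producing complete growth inhibition.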

Holding throughout (test): growth of human tumour cells (NCI), 48 h
The test system of test [1] is SK-MEL-5 melanoma.
For test [2], the system named is M14 melanoma.
For test [3], the system named is COLO 205 colon.
For test [4], the system named is RXF 393 renal.
Test [5] has as its system TK-10 renal.
Test [6] concerns MDA-MB-435.
Test [7] concerns UO-31 renal.
Test [8] concerns EKVX NSCLC.
The subject of test [9] is MOLT-4 leukemia.
Test [10] deals with UACC-62 melanoma.

With `Nc1ccc(C(=O)N/C(=C\c2cccc([N+](=O)[O-])c2)c2nc3[nH]c(=S)[nH]c(=O)c3[nH]2)cc1`, the TGI in test [1] is greater than 100 µM; in test [2], greater than 100 µM; in test [3], greater than 100 µM; in [4], 55.9 µM; in [5] it was greater than 100 µM; in test [6], greater than 100 µM. Also, the TGI in test [7] was greater than 100 µM; in test [8], greater than 100 µM; in test [9], greater than 56.2 µM; in test [10], greater than 56.2 µM.

In the case of `COc1ccc(Cc2coc3ccccc3c2=O)cc1OC`, the TGI was 67.8 µM in test [1]; greater than 100 µM in test [2]; greater than 100 µM in [3]; greater than 100 µM in test [4]; greater than 100 µM in [5]; greater than 100 µM in test [6]. In addition, the TGI in test [7], in test [8], in test [9] and in [10] was greater than 100 µM throughout.

As for `O=S(=O)(NNc1ccccc1)c1ccccc1`, the TGI in test [1] was 12.7 µM; in test [2] it was 17.3 µM; in [3], 22.3 µM; in test [4] it was 38.5 µM; in [5], greater than 100 µM; in test [6], 21.3 µM. For the same molecule, the TGI was found to be 25.7 µM in [7], 31.9 µM in test [8], 99 µM in [9] and 30 µM in test [10].

In the case of `CC1(C)CNc2cc(NC(=O)c3cccnc3NCc3ccncc3)ccc21`, the GI50 in [1] is 16 µM; in test [2] it was 20.2 µM; in test [3] it was 34.2 µM; in test [4], 11.7 µM; in [5] it was 43.1 µM; in test [6], 26.1 µM. Moreover, the GI50 is 20 µM in [7], 23.6 µM in [8], 23.8 µM in [9] and 12.9 µM in [10]. Also, the TGI was 30.8 µM in test [1]; 88.6 µM in [2]; greater than 100 µM in [3]; 64.9 µM in [4]; greater than 100 µM in [5]; greater than 100 µM in [6]. Further, the TGI in test [7] is greater than 100 µM; in test [8] it was greater than 95.2 µM; in [9] it was greater than 100 µM; in [10] it was 48.4 µM.

For `COc1ccc2c(c1)nc(C(=O)c1ccco1)c(C(F)(F)F)[n+]2[O-]`, the GI50 was greater than 100 µM in test [1]; greater than 100 µM in test [2]; greater than 100 µM in test [3]; 47.5 µM in test [4]; 86.8 µM in test [5]; greater than 100 µM in test [6]. The GI50 in test [7], in test [8], in [9] and in test [10] was greater than 100 µM in each case. The TGI in test [1], in [2], in [3], in test [4], in test [5] and in test [6] was greater than 100 µM each time. The TGI in test [7], in test [8], in test [9] and in test [10] was greater than 100 µM throughout.

On to `CC1=C(c2ccccc2)C(O)(c2ccccc2)C(C)C1=O` (centres undefined), for which the GI50 in test [1] is 14 µM; in [2], 4.72 µM; in [3] it was 25.1 µM; in test [4], 17.4 µM; in [5], 30.1 µM; in [6] it was 2.13 µM. Also, the GI50 was 13.2 µM in [7], 35.1 µM in test [8], 21.6 µM in test [9] and 9.97 µM in [10]. The TGI is greater than 100 µM in test [1]; 33.7 µM in [2]; greater than 100 µM in test [3]; greater than 100 µM in [4]; greater than 100 µM in test [5]; 5.47 µM in test [6]. The TGI in test [7], in test [8], in test [9] and in test [10] was greater than 100 µM throughout.

Take `CC1=C(SCCC(=O)OC(C[Se]C2=C(C)C(=O)c3ccccc3C2=O)C(=O)NCCCCCC(=O)OCc2ccccc2)C(=O)c2ccccc2C1=O` (centres undefined): the GI50 in [1] is 3.81 µM; in test [2], 2.01 µM; in test [3], 7.95 µM; in test [4], 14.9 µM; in test [5] it was 13.8 µM; in test [6], 2.13 µM. The GI50 in [7] was 2.51 µM; in test [8], 3.62 µM; in test [9], 4.08 µM; in test [10], 8.04 µM. Moreover, the TGI in test [1] was found to be 14.9 µM; in [2], 4.22 µM; in [3], 22.6 µM; in test [4], 28.3 µM; in test [5], 27.2 µM; in test [6], 13 µM. Moreover, the TGI in [7] is 15.3 µM; in test [8], 17.8 µM; in test [9], greater than 100 µM; in test [10], 20.9 µM.

As to `CCN(CC)CCCNc1cc(OC)cc2nc3cc(Cl)ccc3nc12`, the GI50 in test [1] is 1.59 µM; in [2], 1.61 µM; in [3], 0.956 µM; in [4] it was 1.25 µM; in test [5] it was 1.85 µM; in [6], 1.87 µM. In addition, the GI50 in test [7] was 1.19 µM; in [8], 3.04 µM; in test [9], 1.28 µM; in test [10] it was 2.19 µM. Moreover, the TGI in [1] stood at 2.96 µM; in [2], 3.02 µM; in test [3], 2.26 µM; in test [4], 2.63 µM; in test [5], 5.8 µM; in test [6], 3.97 µM. Also, the TGI in test [7] was 4.08 µM; in [8], 14.1 µM; in [9] it was 13.7 µM; in [10], 4.25 µM.

Take `Cc1cc2c(cc1Cl)S/C(=C/C(=O)O)C(Nc1ccc3ncsc3c1)=NS2(=O)=O`: the GI50 in test [1] is greater than 14.6 µM; in test [2], 12.7 µM; in test [3], greater than 26.7 µM; in test [4] it was 19.8 µM; in test [5], 17.9 µM; in test [6] it was greater than 33.5 µM. In addition, the GI50 in [7] was 14.8 µM; in test [8] it was greater than 16.9 µM; in test [9] it was 5.5 µM; in test [10] it was 33.5 µM. Further, the TGI was greater than 24 µM in test [1]; greater than 38.1 µM in test [2]; greater than 33.9 µM in test [3]; greater than 100 µM in test [4]; 51.1 µM in [5]; greater than 53.4 µM in test [6]. Further, the TGI in test [7] is greater than 50.7 µM; in [8], greater than 52.8 µM; in [9] it was greater than 26.8 µM; in [10], greater than 57.7 µM.

For the molecule `COc1cc(/C=N/Nc2ncnc3c2cnn3-c2ccccc2)ccc1O`, the GI50 in test [1] was 12.6 µM; in [2] it was greater than 21.4 µM; in test [3], greater than 14.6 µM; in test [4], 4.33 µM; in test [5], greater than 19.2 µM; in test [6], 1.41 µM. The GI50 in test [8] was greater than 25 µM; in test [9] it was greater than 25 µM; in [10] it was 15.6 µM. Moreover, the TGI in test [1] is greater than 25 µM; in [2], greater than 25 µM; in [3] it was greater than 25 µM; in test [4], greater than 25 µM; in [5], greater than 25 µM; in test [6], greater than 15.7 µM. Besides, the TGI in test [7], in test [8], in test [9] and in test [10] was greater than 25 µM in each case.

As to `CC(C)(C)C1CCC2c3c([nH]c4ccccc34)C3C(=O)N(c4ccc(Cl)cc4)C(=O)C3C2C1` (centres undefined), the GI50 is greater than 100 µM in test [1]; 54.3 µM and > 10 µM in test [2]; 49.9 µM and > 10 µM in [3]; 48.5 µM and > 10 µM in [4]; greater than 100 µM in test [5]; greater than 100 µM in test [6]. Also, the GI50 in test [7] was greater than 100 µM; in test [8], 63.9 µM and > 10 µM; in [9] it was 23.6 µM and > 10 µM; in [10] it was greater than 100 µM. The TGI in [1], in [2], in [3], in test [4], in [5] and in test [6] was greater than 100 µM throughout. Besides, the TGI is greater than 100 µM in [7]; greater than 100 µM in test [8]; 50.6 µM and > 10 µM in test [9]; greater than 100 µM in test [10].

Take `CCOC(=O)Oc1cc2c(c(OC)c1OC)-c1ccc(OC)c(=O)cc1C(NC(C)=O)CC2` (centres undefined): the TGI in test [1] is 0.14 µM; in [2], greater than 70.6 µM; in test [3], 0.135 µM; in test [4], 0.564 µM; in [5] it was greater than 100 µM; in test [6], 0.0168 µM. Moreover, the TGI in [7] is greater than 100 µM; in test [8] it was greater than 100 µM; in test [9], 22.9 µM; in test [10], 25.2 µM.

Consider `Cc1csc2[n+]1-c1ccccc1N(C(=O)Nc1ccccc1)C(C)C2` (centres undefined), for which the GI50 was 42.6 µM in test [1]; 43.7 µM in test [2]; greater than 100 µM in [3]; 50.8 µM in [4]; greater than 100 µM in [5]; greater than 100 µM in [6]. The GI50 in test [7] is greater than 100 µM; in [8] it was greater than 100 µM; in test [9], 88.5 µM; in test [10], 60.4 µM. For the same molecule, the TGI in test [1], in test [2], in test [3], in [4], in test [5] and in [6] was greater than 100 µM each time. Moreover, the TGI in [7], in test [8], in test [9] and in [10] was greater than 100 µM in each case.

As for `CCC(C)Nc1ccc(N)cc1` (centres undefined), the GI50 in [1] was 2.86 µM; in test [2], 4.72 µM; in test [3] it was 1.72 µM; in [4], 4.62 µM; in [5], 5.72 µM; in test [6] it was 4.11 µM. In addition, the GI50 in [7] was 3.3 µM; in [8], 3.47 µM; in test [9], 4.29 µM; in [10], 2.91 µM. In addition, the TGI came out at 9.05 µM in test [1]; 15.5 µM in [2]; 3.19 µM in [3]; 15.8 µM in test [4]; 25.3 µM in test [5]; 15.3 µM in test [6]. Also, the TGI worked out at 14 µM in test [7], 14.8 µM in test [8], 12.4 µM in test [9] and 12.5 µM in test [10].

With `CCN(Cc1ccccc1)C1CCN(Cc2cc(Br)ccc2O)CC1`, the GI50 is 15 µM in [1]; 20.7 µM in test [2]; 17 µM in test [3]; 17.5 µM in test [4]; greater than 100 µM in [5]; 30.2 µM in [6]. Moreover, the GI50 was 24 µM in [7], 31.9 µM in test [8], 32.6 µM in [9] and 26.6 µM in test [10]. The TGI was 28.9 µM in test [1]; 54.5 µM in test [2]; 39.6 µM in test [3]; 94.6 µM in test [4]; greater than 100 µM in test [5]; greater than 100 µM in test [6]. The TGI in test [7], in [8], in test [9] and in [10] was greater than 100 µM throughout.

On to `CNC(=O)c1cc(Oc2ccc(NC(=O)Nc3ccc(Cl)c(C(F)(F)F)c3)c(F)c2)ccn1`, for which the GI50 is 1.5 µM and 1.35 µM in [1]; 1.38 µM and 1.28 µM in test [2]; 2.28 µM and 1.36 µM in [3]; 3.83 µM and 2.91 µM in [4]; 3.5 µM and 3.03 µM in [5]; 1.56 µM and 1.52 µM in [6]. The GI50 is 1.53 µM and 1.82 µM in test [7]; 2.96 µM and 2.68 µM in test [8]; 2.21 µM and 1.91 µM in test [9]; 0.98 µM in test [10]. Also, the TGI in test [1] is 2.94 µM and 3.16 µM; in test [2] it was 6.75 µM and 8.81 µM; in [3], 8.52 µM and 5.74 µM; in test [4], 17 µM and > 10 µM; in test [5], 27.8 µM and > 10 µM; in test [6], 4.8 µM and 4.85 µM. Further, the TGI in test [7] was 4.22 µM and > 10 µM; in test [8], greater than 44 µM; in [9], 5.75 µM and 6.59 µM; in test [10], 4.73 µM.
